Data on 24 molecules can be found in US8097752B2, “Antiprotozoal ring-substituted phospholipids” (priority 2002, dated 2012).

In general, IC50 refers to the concentration needed to halve the response being measured.

The subject of assay [1] is promastigote forms of Leishmania infantum. In words: In vitro antileishmanial activity in promastigote cultures (MTT), L. infantum. It counts as cell-based, Leishmania infantum MHOM/TN/80/IPT1/LEM 235. The following applies: promastigotes, 72 h incubation, mean ± SEM, n = 3-4 (each run in duplicate), read-out: IC50 (μM) L. infantum MON 235. As for the experimental part: (§1) Determination of in Vitro Antileishmanial Activity in Promastigote Cultures.
(§2) The effect of the phospholipids according to the present invention against the promastigote forms of Leishmania donovani and Leishmania infantum was evaluated using an MTT (3-(4,5-dimethylthiazol-2yl)-2,5-diphenyltetrazolium bromide)-based enzymatic method as a marker of cell viability and was compared with that of the ether phospholipid hexadecylphosphocholine (Miltefosine). Thus, promastigotes of Leishmania infantum MHOM/TN/80/IPT1/LEM 235 and Leishmania donovani MHOM/IN/80/DD8/LEM 703, were grown in RPMI 1640 supplemented with 10% FCS, L. glutamine and antibiotics, at 26° C. All new compounds were dissolved in DMSO to a final concentration of 9.625 mM and linear 3-fold dilutions were done in the culture medium. 25 μL of promastigote culture at 5×10^5 cells/mL were cultured in a 96-well flat-bottom plate (Costar 3696), and incubated with 25 μL of different drug concentrations at 26° C. After 72 h, 10 μL of 5 mg/mL MTT in PBS (SIGMA M2128) were added and incubation was continued for 3 h. The reaction was stopped by the addition of 50 μL of 50% isopropanol, 10% SDS under gentle shacking for 30 min. Absorbance was measured at 550 nm with reference at 620 nm in a TRITURUS microplate reader.

The test system of assay [2] is promastigote forms of Leishmania donovani. Put plainly: In vitro antileishmanial activity in promastigote cultures (MTT), L. donovani. The format is cell-based, Leishmania donovani MHOM/IN/80/DD8/LEM 703. The following applies: promastigotes, 72 h incubation, mean ± SEM, n = 3-4 (each run in duplicate), read-out: IC50 (μM) L. donovani MON 703. As to the method:
as §1, §2

Where a name gives a salt, the structure may show the parent alone.

Take `CCCCCCCCCCCC=C1CCC(OCCOP(=O)([O-])OCC[N+](C)(C)C)CC1` (stereo not drawn) [Example 1, 1-{2-{[(4-Dodecylidenecyclohexyloxy)ethyloxy]hydroxyphosphinyloxy}ethyl}-N,N,N-trimethylammonium inner salt]: the IC50 turned out to be 3.25 ± 0.65 µM in assay [1] and 7.08 ± 1.2 µM in assay [2].
The like results for `CCCCCCCCCCCC=C1CCC(OCCOP(=O)([O-])OCC[N+]2(C)CCCCC2)CC1` (stereo not drawn) [Example 2, 1-{2-{[(4-Dodecylidenecyclohexyloxy)ethyloxy]hydroxyphosphinyloxy}ethyl}-1-methylpiperidinium inner salt] were, in that order, 23.1 ± 3.6 µM and 22 ± 3.25 µM.
For the molecule `CCCCCCCCCCCC=C1CCC(OCCOP(=O)([O-])OCC[N+]2(C)CCOCC2)CC1` (stereo not drawn) [Example 3, 1-{2-{[(4-Dodecylidenecyclohexyloxy)ethyloxy]hydroxyphosphinyloxy}ethyl}-1-methylmorpholinium inner salt], the IC50 was 16.5 ± 1.8 µM in assay [1] and 50.7 ± 3.6 µM in assay [2].
In the same order, the values of `CCCCCCCCCCCCCC=C1CCC(OCCOP(=O)([O-])OCC[N+](C)(C)C)CC1` (stereo not drawn) [Example 4, 1-{2-{[(4-Tetradecylidenecyclohexyloxy)ethyloxy]hydroxyphosphinyloxy}ethyl}-N,N,N-trimethylammonium inner salt] are 5.25 ± 0.45 µM and 3.91 ± 0.21 µM.
For the molecule `CCCCCCCCCCCCCC=C1CCC(OCCOP(=O)([O-])OCC[N+]2(C)CCCCC2)CC1` (stereo not drawn) [Example 5, 1-{2-{[(4-Tetradecylidenecyclohexyloxy)ethyloxy]hydroxyphosphinyloxy}ethyl}-1-methylpiperidinium inner salt], the figures for the IC50 in assay [1] and in assay [2] were 11.4 ± 2.4 µM and 29.7 ± 3.6 µM, respectively.
Turning to `CCCCCCCCCCCCCC=C1CCC(OCCOP(=O)([O-])OCC[N+]2(C)CCOCC2)CC1` (stereo not drawn) [Example 6, 1-{2-{[(4-Tetradecylidenecyclohexyloxy)ethyloxy]hydroxyphosphinyloxy}ethyl}-1-methylmorpholinium inner salt], the IC50 came to 15.5 ± 1.8 µM in assay [1] and 38.6 ± 3.2 µM in assay [2].
For the molecule `CCCCCCCCCCCCCCCC=C1CCC(OCCOP(=O)([O-])OCC[N+](C)(C)C)CC1` (stereo not drawn) [Example 7, 1-{2-{[(4-Hexadecylidenecyclohexyloxy)ethyloxy]hydroxyphosphinyloxy}ethyl}-N,N,N-trimethylammonium inner salt], the IC50 in assay [1] worked out at 21.2 ± 2.6 µM; in assay [2], 45.1 ± 7.2 µM.
In the same order, the values of `CCCCCCCCCCCCCCCC=C1CCC(OCCOP(=O)([O-])OCC[N+]2(C)CCCCC2)CC1` (stereo not drawn) [Example 8, 1-{2-{[(4-Hexadecylidenecyclohexyloxy)ethyloxy]hydroxyphosphinyloxy}ethyl}-1-methylpiperidinium inner salt] are 6.5 ± 1.7 µM and 22 ± 1.99 µM.
In the case of `CCCCCCCCCCCCCCCC=C1CCC(OCCOP(=O)([O-])OCC[N+]2(C)CCOCC2)CC1` (stereo not drawn) [Example 9, 1-{2-{[(4-Hexadecylidenecyclohexyloxy)ethyloxy]hydroxyphosphinyloxy}ethyl}-1-methylmorpholinium inner salt], the IC50 in assay [1] stood at 3.7 ± 0.71 µM; in assay [2] it was 16.2 ± 2.29 µM.
The like results for `C[N+](C)(C)CCOP(=O)([O-])OCCCCC=C1CCCCC1` [Example 10, 1-{2-[(5-Cyclohexylidenepentyloxy)hydroxyphosphinyloxy]ethyl}-N,N,N-trimethylammonium inner salt] were, in that order, above 100 µM and above 100 µM.
In the same order, the values of `C[N+]1(CCOP(=O)([O-])OCCCCC=C2CCCCC2)CCCCC1` [Example 11, 1-{2-[(5-Cyclohexylidenepentyloxy)hydroxyphosphinyloxy]ethyl}-1-methylpiperidinium inner salt] are above 100 µM and above 100 µM.
The like results for `C[N+]1(CCOP(=O)([O-])OCCCCC=C2CCCCC2)CCOCC1` [Example 12, 1-{2-[(5-Cyclohexylidenepentyloxy)hydroxyphosphinyloxy]ethyl}-1-methylmorpholinium inner salt] were, in that order, above 100 µM and above 100 µM.
Turning to `C[N+]1(CCOP(=O)([O-])OCCCCCCCCCCC=C2CCCCC2)CCCCC1` [Example 14, 1-{2-[(11-Cyclohexylideneundecyloxy)hydroxyphosphinyloxy]ethyl}-1-methylpiperidinium inner salt], the IC50 in assay [1] turned out to be 47.6 ± 7.33 µM; in assay [2], 8.7 ± 1 µM.
With `C[N+]1(CCOP(=O)([O-])OCCCCCCCCCCC=C2CCCCC2)CCOCC1` [Example 15, 1-{2-[(11-Cyclohexylideneundecyloxy)hydroxyphosphinyloxy]ethyl}-1-methylmorpholinium inner salt], the IC50 stood at 22.8 ± 1.7 µM in assay [1] and 8.25 ± 0.25 µM in assay [2].
Take `C[N+](C)(C)CCOP(=O)([O-])OCCCCC=C1C2CC3CC(C2)CC1C3` [Example 16, 1-{2-[(5-Adamantylidenepentyloxy)hydroxyphosphinyloxy]ethyl}-N,N,N-trimethylammonium inner salt]: the IC50 in assay [1] is above 100 µM; in assay [2] it was 4.99 ± 1.5 µM.
For `C[N+]1(CCOP(=O)([O-])OCCCCC=C2C3CC4CC(C3)CC2C4)CCCCC1` [Example 17, 1-{2-[(5-Adamantylidenepentyloxy)hydroxyphosphinyloxy]ethyl}-1-methylpiperidinium inner salt], the IC50 in assay [1] and in assay [2] was above 100 µM throughout.
With `C[N+]1(CCOP(=O)([O-])OCCCCC=C2C3CC4CC(C3)CC2C4)CCOCC1` [Example 18, 1-{2-[(5-Adamantylidenepentyloxy)hydroxyphosphinyloxy]ethyl}-1-methylmorpholinium inner salt], the half-maximal inhibitory concentration (IC50) was above 100 µM in assay [1] and 46.9 ± 8.7 µM in assay [2].
As to `C[N+]1(CCOP(=O)([O-])OCCCCCCCCCCC=C2C3CC4CC(C3)CC2C4)CCCCC1` [Example 20, 1-{2-[(11-Adamantylideneundecyloxy)hydroxyphosphinyloxy]ethyl}-1-methylpiperidinium inner salt], the IC50 in assay [1] is 22.6 ± 3.4 µM; in assay [2] it was 5.41 ± 1.14 µM.
In the same order, the values of `C[N+]1(CCOP(=O)([O-])OCCCCCCCCCCC=C2C3CC4CC(C3)CC2C4)CCOCC1` [Example 21, 1-{2-[(11-Adamantylideneundecyloxy)hydroxyphosphinyloxy]ethyl}-1-methylmorpholinium inner salt] are 6.64 ± 1.2 µM and 5.09 ± 1.86 µM.
Take `CCCCCCCCCCCCC1CCC(OCCOP(=O)([O-])OCC[N+](C)(C)C)CC1` (stereo not drawn) [Example 26, 1-{2-{[(4-Dodecylcyclohexyloxy)ethyloxy]hydroxyphosphinyloxy}ethyl}-N,N,N-trimethylammonium inner salt]: the IC50 in assay [1] is 5.65 ± 1.93 µM; in assay [2], 9.49 ± 1.4 µM.
Take `CCCCCCCCCCCCCCC1CCC(OCCOP(=O)([O-])OCC[N+](C)(C)C)CC1` (stereo not drawn) [Example 27, 1-{2-{[(4-Tetradecylcyclohexyloxy)ethyloxy]hydroxyphosphinyloxy}ethyl}-N,N,N-trimethylammonium inner salt]: the results for the IC50 in assay [1] and in assay [2] were 23.3 ± 3.5 µM and 23.7 ± 4.4 µM, respectively.
For `C[N+](C)(C)CCOP(=O)([O-])OCCCCCCCCCCCC1CCCCC1` [Example 28, 1-{2-[(11-Cyclohexylundecyloxy)hydroxyphosphinyloxy]ethyl}-N,N,N-trimethylammonium inner salt], the IC50 in assay [1] is 8.4 ± 0.8 µM; in assay [2] it was 10.3 ± 1.3 µM.
For `C[N+](C)(C)CCOP(=O)([O-])OCCCCCC12CC3CC(CC(C3)C1)C2` [Example 29, 1-{2-[(5-Adamantylpentyloxy)hydroxyphosphinyloxy]ethyl}-N,N,N-trimethylammonium inner salt], the IC50 in assay [1] is above 100 µM; in assay [2] it was 4.02 ± 2.3 µM.
In the case of `C[N+](C)(C)CCOP(=O)([O-])OCCCCCCCCCCCC12CC3CC(CC(C3)C1)C2` [Example 30, 1-{2-[(11-Adamantylundecyloxy)hydroxyphosphinyloxy]ethyl}-N,N,N-trimethylammonium inner salt], the IC50 in assay [1] is 5.97 ± 1.06 µM; in assay [2] it was 2.88 ± 0.72 µM.
